These are literature values, as cited in patent US12343417B2, “Antiperspirant compositions” (Conopco, Inc., priority 2018, dated 2025).

The data set has as its system Staphylococcus epidermidis. To be noted: 80% or greater reduction in growth over 16 to 24 hours at 37° C.
For orientation: MIC means the least concentration at which growth counts as inhibited. Take `CCO` [ethanol]: the minimum inhibitory concentration (MIC) result is reported as “greater than 1 mg·ml^−1”.

As for `CC(C)=CCCC(C)=CCCC(C)=CCO` [farnesol, 3,7,11-trimethyldodeca-2,6, 10-trienol], the minimum inhibitory concentration (MIC) result is listed as “ca. 25 μg·ml^−1”.

Regarding `Oc1cc(Cl)ccc1Oc1ccc(Cl)cc1Cl` [triclosan, 2′,4,4′-trichloro,2-hydroxy-diphenyl ether], the MIC is 0.01 to 10 µg/mL.
